Experimental data published in patent US20170009266A1, “PROCESS FOR THE ATTACHMENT OF A GALNAC MOIETY COMPRISING A (HETERO)ARYL GROUP TO A GLCNAC MOIETY, AND PRODUCT OBTAINED THEREBY” (SYNAFFIX B.V., priority 2014, published 2017).
Where a chain is given by its changes, count along the chain named.

Tests used:
Gal-T1(Y289A) = molecular target: T1, Gal-T1(Y289A) (Bos taurus, UniProt P08037, I205M/L206V/P187L/V158I/Y289A); assay: Glycosyltransfer to trimmed trastuzumab with Gal-T1(Y289A) expressed in CHO; type: biochemical, bovine; conditions: trimmed trastuzumab 10 mg/mL; UDP derivative 5 mM; enzyme 0.5 mg/mL; pH 8.0, 30° C. overnight
T1 construct: host or cells: CHO K1
T1 sequence (P08037 74-402 V158I/P187L/I205M/L206V/Y289A): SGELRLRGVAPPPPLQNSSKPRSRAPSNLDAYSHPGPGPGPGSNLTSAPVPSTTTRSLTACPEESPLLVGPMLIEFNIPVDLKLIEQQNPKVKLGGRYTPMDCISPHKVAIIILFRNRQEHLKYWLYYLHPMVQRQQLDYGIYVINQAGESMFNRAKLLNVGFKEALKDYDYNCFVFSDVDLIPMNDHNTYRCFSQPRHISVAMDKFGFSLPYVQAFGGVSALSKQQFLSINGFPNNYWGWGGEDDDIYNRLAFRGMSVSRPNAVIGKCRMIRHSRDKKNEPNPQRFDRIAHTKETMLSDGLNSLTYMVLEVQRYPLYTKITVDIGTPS
Excerpt: (§1) A set of Gal-T 1 mutants encoding residues 74-402 of bovine Gal-T 1 were transiently expressed in CHO K1 cells by Evitria (Zurich, Switzerland) which include the Gal-T1 single mutants Y289L (represented by SEQ ID NO: 26), Y289F (represented by SEQ ID NO: 27), Y289M (represented by SEQ ID NO: 28), Y289V (represented by SEQ ID NO: 29), Y289A (represented by SEQ ID NO: 30), and Y289G (represented by SEQ ID NO: 31), and the Gal-T1 double mutants Y289L,C342T (represented by SEQ ID NO: 32), and Y289M,C342T (represented by SEQ ID NO: 33). The mutants were purified using a cation exchange column (Source 15S HR16/10 column, GE Healthcare) as described above. Purified proteins were analyzed by SDS-PAGE.
Trimmed trastuzumab (10 mg/mL, […] obtained by Endo S treatment of trastuzumab, was incubated with the 4-azido-3,5-difluorobenzoyl derivative of UDP-galactosamine (23, 5 mM) and one of the Gal-T1 single mutants Y289L, Y289M, Y289A or Y289G (expressed in CHO as described above) (0.5 mg/mL) in 10 mM MnCl2 and 25 mM Tris-HCl pH 8.0 at 30° C. overnight. Mass spectral analysis of the reduced sample indicated a partial conversion of the core GlcNac(Fuc)-substituted trastuzumab heavy chain (49504 Da) into product 30 (49818 to 49825 Da, 20 to 50% of total heavy chain depending on the Gal-T1 mutant used), resulting from transfer of 23 to core GlcNAc(Fuc)-substituted trastuzumab heavy chain. […]

Gal-T1(Y289L,C342T) = molecular target: T2, Gal-T1(Y289L,C342T) (Bos taurus, UniProt P08037, C342T/Y289L); assay: Glycosyltransfer to trimmed trastuzumab with Gal-T1(Y289L,C342T) expressed in CHO; type: biochemical, bovine; conditions: trimmed trastuzumab 10 mg/mL; UDP derivative 5 mM; enzyme 2.0 mg/mL; pH 8.0, 30° C. overnight
T2 construct: host or cells: CHO K1
T2 sequence (P08037 74-402 V158I/P187L/I205M/L206V/Y289L/C342T): T1 sequence (P08037 74-402 V158I/P187L/I205M/L206V/Y289A) with A216L, C269T
Procedure: A solution of 20 μg (modified) IgG was incubated for 1 hour at 37° C. with Fabricator™ (commercially available from Genovis, Lund, Sweden) (1.25 U/μL) in phosphate-buffered saline (PBS) pH 6.6 in a total volume of 10 μL. Fabricator™-digested samples were washed trice with milliQ using an Amicon Ultra-0.5, Ultracel-10 Membrane (Millipore) resulting in a final sample volume of approximately 40 μL. The Fc/2 fragment was analyzed by electrospray ionization time-of-flight (ESI-TOF) on a JEOL AccuTOF. Deconvoluted spectra were obtained using Magtran software.
as §1, with “SDS-PAGE. […]” for “SDS-PAGE.”

[N-]=[N+]=Nc1c(F)cc(C(=O)N[C@H]2[C@@H](OP(=O)(O)OP(=O)(O)OC[C@H]3O[C@@H](n4ccc(=O)[nH]c4=O)[C@H](O)[C@@H]3O)O[C@H](CO)[C@H](O)[C@@H]2O)cc1F [Compound 23, 4-azido-3,5-difluorobenzoyl Derivative of UDP-GalNH2]
observed conversion (Gal-T1(Y289A)): approximately 20%
conversion of core GlcNAc(Fuc)-substituted trastuzumab into product (Gal-T1(Y289L,C342T)): complete conversion
